Reference: patent US20260234217A1, “USE OF BMP RECEPTOR ALK1 INHIBITORS IN OSTEOARTHRITIS THERAPIES” (The Regents of the University of California, priority 2023, published 2026)
“Also recorded” adds a separate entry of the source.

How the values were obtained:
[1] = test system: chondrocyte hypertrophy and MMP13 expression; settings: ex vivo and in vivo; cited from earlier work
[2] = test system: bone marrow stromal cell-derived chondrocytes; settings: cited from earlier work
AC cartilage = settings: post-traumatic OA model, Jaswal et al.; cited from earlier work
[3] = test system: articular cartilage of DMM mice; test: DMM model of post-traumatic OA: Safranin-O/Fast Green staining and OARSI scoring of articular cartilage damage; type: in vivo, mouse; settings: mice with established osteoarthritis, 50 ng/dose injected into knee joint space
Description: (§1) FIG. 13. Growth differentiation factor 11 (GDF11, see, e.g., NCBI Reference Sequence: NP_005802.1) competes with BMP9/10 for binding to BMP type II receptors ACVRIIA or ACVRIIB, thereby preventing the association of BMP type I receptor ALK1 with ACVRIIA/B and decreasing BMP signaling. […] We tested this hypothesis by locally injecting GDF11 (50 ng/dose) into the knee joint space at mice with established post-traumatic OA. (A) Experimental Outline (B) Safranin-O/Fast Green (SOFG) Staining of sagittal sections of the knee joint, femur (top) and tibia (bottom) for proteoglycan (cartilage; red) and bone (green) at week 8 after DMM or Sham surgery. Mice were treated with either GDF11, or Phosphate Buffered Saline (PBS) after received surgery (n=5/group). 4-Week DMM mice were sacrificed 4 weeks after surgery and received no treatment (n=6). AC damage indicated by dotted line. (C-D) Osteoarthritis Research Society International (OARSI) scoring of AC damage in the (C) medial tibial plateau and (D) medial femoral condyle in representative sections of each treatment at week 4 or 8 after surgery. All data are shown as mean bar+/−standard deviation *p<0.05. Data analysis performed was one-way ANOVA. Scale 250 uM.
Mice (C57BL/6J) were purchased from The Jackson Laboratory. All mice were housed on a 12-hour light/dark cycle with unrestricted access to standard mouse food and water. The DMM model of injury induced OA was performed on mice at 12 weeks of age by opening the joint capsule and transecting the medial meniscotibial ligament in the right knee, destabilizing the medial meniscus(48). A sham operation was performed on the left knee of each mouse by observing the medial meniscotibial ligament but not transecting it. Mice were administered carprofen 5 mg/kg (Zoetis; 1041283) subcutaneously 30 minutes prior to surgery, immediately post-surgery, and 24 hours post-surgery to minimize pain.
Treatments were initiated either 1 day after DMM surgery once a week for 8 weeks, or 1 month after DMM surgery twice a week for 4 weeks. Mice were sacrificed at 20 weeks of age (2 months after surgery). To understand the level of articular cartilage damage 1 month after DMM surgery, a cohort of mice was sacrificed at 16 weeks old (FIG. 4).
Knee joint samples were harvested and fixed in 4% Paraformaldehyde for 3 days, and subsequently decalcified in formic acid (Statlab; 1414-32) for 3 days and embedded in paraffin. Sagittal sections 7 micrometers in thickness were taken and stained using Safranin-O (Sigma-Aldrich; S8884-25G), fast green (Sigma-Aldrich; F7258-25G), and hematoxylin (Fisherbrand; 245-656) using a standard histology protocol. Images were taken with the Olympus BX60 brightfield microscope using a 10× objective lens. Representative sections throughout the medial and lateral portion of side were chosen for histological analysis, resulting in 5 sections being imaged for both portions of the joint.
The 10 total sections per joint chosen for histology received randomized sample numbers and were given to three independent researchers who scored the level of cartilage damage based on OARSI guidelines (84). OARSI scores were analyzed with Prism 9 Software (GraphPad) using two-way ANOVA and Tukey's multiple comparisons test post-hoc. Scoring was performed by at least three experienced investigators blinded to treatment/genotype. Scores were averaged for the medial tibial plateau, medial femoral condyle, lateral tibial plateau, and lateral femoral condyle for each sample.

TGFbeta signaling = test: GDF11 injection into the knee joint of mice with established post-traumatic OA: TGFbeta signaling; type: in vivo, mouse; settings: data of FIG. 13
Description: as §1, with “uM. […]” for “uM.”

Row | Molecule | chondrocyte hypertrophy and MMP13 expression [1] | chondrocyte hypertrophy / chondrogenic hypertrophic markers in vitro [2] | protection of AC cartilage (AC cartilage) | degeneration of articular cartilage [3] | TGFbeta signaling (TGFbeta signaling)
1 | c1ccc2c(-c3cnn4cc(-c5ccc(N6CCNCC6)cc5)cnc34)ccnc2c1 [LDN-193189] | prevented | not able to prevent; also recorded: no reduction | protective | – | –
2 | GDF11: GDF11 protein from Bio-techne/R&D, catalog 1958-GD, truncated active protein of 109 amino acids (protein, UniProt O95390 299-407, looked up, Growth/differentiation factor 11) Growth/differentiation factor …: NLGLDCDEHSSESRCCRYPLTVDFEAFGWDWIIAPKRYKANYCSGQCEYMFMQKYPHTHLVQQANPRGSAGPCCTPTKMSPINMLYFNDKQQIIYGKIPGMVVDRCGCS | – | – | – | attenuate the degeneration of articular cartilage | increase TGFbeta signaling
